Molecules are shown by their SMILES.

We go through 2 compounds from patent US20240216317A1, “COMPOSITION FOR PREVENTING, AMELIORATING OR TREATING INFLAMMATORY BOWEL DISEASE COMPRISING COMPOUND ISOLATED FROM ISODON EXCISUS AS EFFECTIVE COMPONENT” (HEALINNOLS INC., priority 2022, published 2024).

One assay relates to claudin1. Nature of the assay: Immunofluorescence microscopy of tight junction-related protein claudin1 in intestinal epithelial wall model (DSS-treated Caco-2). The settings on record: 3% DSS, 24 hours; Chemical formula 1 0.3, 1 or 3 μM; 5-ASA 500 μM; FIG. 4. It counts as cell-based, human. As for the experimental part: (§1) Caco-2 cell line (human intestinal epithelial cell line) and RAW 264.7 cell line, which is macrophage cells derived from mouse, were cultured at 37° C., 5% CO2 conditions by using DMEM (Dulbecco's Modified Eagle Medium, #11995065, Gibco) containing 10% FBS (fetal bovine serum, #16000044, Gibco) and 1% streptomycin/penicillin (#15140122, Gibco). For culturing the cells, the medium exchange was carried out every 2 to 3 days, and, once the cells are grown to the level of 80% in cell culture dish (#353003, Falcon), they were maintained by subculture.
(§2) The Caco-2 cells were adjusted to have density of 2×10^5 cells/ml. Suspension of the cells (0.5 ml) was aliquoted in apical side membrane phase of a transwell insert 12-well plate. To the basolateral side phase, 1.5 ml of culture medium were added. While replacing the medium with fresh one, once per 2 or 3 days, culture was continued for 21 days approximately, i.e., till to have cell division and suitable TEER (transepithelial electrical resistance) value of monolayer. […]
(§3) Thereafter, the cells were washed 3 times with 1×PBS for 5 minutes and treated for 5 minutes with Hoechst 33342 for staining the nucleus. […] After the mounting with ProLong™ Gold Antifade reagent, it was examined by confocal fluorescence microscopy.

Assay [1] relates to animal model of DSS-induced inflammatory bowel disease. Nature of the assay: Therapeutic effect in mouse model of DSS-induced inflammatory bowel disease (body weight, DAI, colon length). Format: in vivo, mouse (C57BL/6). The following applies: 5-ASA 100 mg/kg oral; for DAI / Colon length: Day 8, mouse, 2.5% DSS, Compound 1 2 mg/kg intraperitoneal; for DAI: 7 days, DSS group 11.75 ± 0.15; for Colon length: DSS group 4.9, normal control 8.4; for rate of body weight loss compared to group administered with DSS: mouse, 2.5% DSS 7 days, Chemical formula 1 2 mg/kg intraperitoneal, once a day for 7 days, FIG. 6. An excerpt: As a mouse with induced inflammatory bowel disease, 6 week-old C57BL/6 was used, and the animal was induced to have the disease by administration of DSS (dextran sulfate sodium, MW 36000 to 50000, MP Biomedicals), Test groups were divided into the followings; normal control which has not been treated with any chemical (3 animals); group administered with DSS (6 animals); group administered with DSS+5-ASA (5-aminosalicylic acid, Sigma) (6 animals); and group administered with DSS+compound represented by Chemical formula 1 of the present invention (6 animals).
Inflammatory bowel disease is generally evaluated in terms of the disease activity index (DAI) based on clinical signs like body weight loss, diarrhea, and bloody feces. DAI is measured by giving a score to each of body weight loss rate, state of feces, and state of bloody feces (Table 1).
In this example, evaluation was made for 7 days for each test group. For all test groups except normal control, 100 ml of drinking water with 2.5% DSS were supplied for 7 days, while the water exchange was made every 2 days, to induce inflammatory bowel disease. The group administered with 5-ASA was orally administered, once a day for 7 days, with 100 mg/kg 5-ASA dispersed in 2.5% CMC (carboxymethylcellulose sodium, Sigma). The compound represented by Chemical formula 1 of the present invention (2 mg/kg) was administered via intraperitoneal injection, once a day for 7 days. From the first day of test, mouse of each test group was weighed to measure the rate of body weight loss. […] However, the weight loss was observed from Day 5 and thereafter in every test group induced to have inflammatory bowel disease by a treatment with DSS.
Evaluation of disease activity index (DAI) was also carried out, once a day from the first day of the test. From all test groups having inflammatory bowel disease induced by DSS treatment except normal control which has not been treated with any chemical, higher DAI was shown from Day 5 and thereafter.
Sum of each item analyzed on Day 8 based on the evaluation index of Table 1 was described as disease activation index (DAI) in Table 2.
With regard to the inflammatory response to inflammatory bowel disease, level of the response can be evaluated in terms of the decrease in colon length. Mouse in each test group was sacrificed on Day 8 and the colon was removed from the animal. Colon length was measured from the removed colon.

Another assay concerns occludin. Nature of the assay: Immunofluorescence microscopy of tight junction-related protein occludin in intestinal epithelial wall model (DSS-treated Caco-2). Format: cell-based, human. The following applies: 3% DSS, 24 hours; Chemical formula 1 0.3, 1 or 3 μM; 5-ASA 500 μM; FIG. 3. Here is the method:
as §1, §2, §3

As for `COC(=O)C[C@H](OC(=O)/C=C/c1ccc(O)c(O)c1)c1ccc(O)c(O)c1` [Compound 1, 3-[3,4-dihydroxyphenyl]acrylic acid 1-[3,4-dihydroxyphenyl]-2-methoxycarbonylethyl ester], in the assay with claudin1, the “expression amount of claudin1 compared to DSS model group” value is listed as “statistically significantly higher”. Besides, in assay [1], the DAI is 8.75 ± 0.21, the Colon length was 7.4 cm and the “rate of body weight loss compared to group administered with DSS” value is “lower rate of body weight loss”. The “expression amount of occludin compared to DSS model group” value with occludin was “statistically significantly higher”.
In the case of `Nc1ccc(O)c(C(=O)O)c1` [Compound 5-ASA, 5-aminosalicylic acid, reference compound], the “expression amount of claudin1 compared to DSS model group” value with claudin1 is on record as “statistically significantly higher”. In addition, in assay [1], the DAI is 10.67 ± 0.19, the Colon length turned out to be 5.7 cm and the “rate of body weight loss compared to group administered with DSS” value is on record as “lower rate of body weight loss”. Also, the “expression amount of occludin compared to DSS model group” value with occludin is given as “statistically significantly higher”.
